The source of these data is ChEMBL document CHEMBL3102722, “Diarylacylhydrazones: Clostridium-selective antibacterials with activity against stationary-phase cells” (Bioorg Med Chem Lett, 2014).

One series has as its system FaDu. The series is described as follows: Cytotoxicity against human FADU cells assessed as concentration required to decrease cell viability incubated for 24 hrs followed by compound washout measured after 18 hrs by resazurin dye-based assay.
The subject of series [1] is Clostridioides difficile. The series is described as follows: Antibacterial activity against stationary phase of Clostridium difficile CD196 assessed as cell killing at 1 to 20 X MIC after 3 to 6 hrs. In kind it is functional.
Series [2] relates to Bacteroides thetaiotaomicron. The series is described as follows: Antibacterial activity against Bacteroides thetaiotaomicron ATCC 29148 assessed as growth inhibition after 20 to 24 hrs. In kind it is functional.
Another series has as its system Streptococcus mutans. The series is described as follows: Antibacterial activity against Streptococcus mutans ATCC 700610 assessed as growth inhibition after 20 to 24 hrs. In kind it is functional.
Series [3] has as its system Limosilactobacillus reuteri. The series is described as follows: Antibacterial activity against Lactobacillus reuteri ATCC 23272 assessed as growth inhibition after 20 to 24 hrs. In kind it is functional.
The subject of another series is Staphylococcus aureus. The series is described as follows: Antibacterial activity against Staphylococcus aureus 8325-4 assessed as growth inhibition after 20 to 24 hrs. Format: functional.
The test system of a further series is Bifidobacterium longum. The series is described as follows: Antibacterial activity against Bifidobacterium longum ATCC BAA-999 assessed as growth inhibition after 20 to 24 hrs. Format: functional.
Another series concerns Clostridium perfringens. The series is described as follows: Antibacterial activity against Clostridium perfringens ATCC 13124 assessed as growth inhibition after 20 to 24 hrs. Format: functional.
For another series, the system named is Lacticaseibacillus casei. The series is described as follows: Antibacterial activity against Lactobacillus casei ATCC 334 assessed as growth inhibition after 20 to 24 hrs. Format: functional.
The next series relates to Escherichia coli. The series is described as follows: Antibacterial activity against Escherichia coli ATCC 700927 assessed as growth inhibition after 20 to 24 hrs. In kind it is functional.
For a further series, the system named is Bacteroides fragilis. The series is described as follows: Antibacterial activity against Bacteroides fragilis ATCC 25285 assessed as growth inhibition after 20 to 24 hrs. In kind it is functional. Conditions: NCTC 9343.
Series [4] in a line: Cytotoxicity against human HepG2 cells assessed as concentration required to decrease cell viability incubated for 24 hrs followed by compound washout measured after 18 hrs by resazurin dye-based assay. The following applies: read-out: Activity. For orientation: The colour change of resazurin is a common sign of viable cells or microbes.
For another series, the system named is Enterococcus faecalis. The series is described as follows: Antibacterial activity against Enterococcus faecalis ATCC 47077 assessed as growth inhibition after 20 to 24 hrs. Format: functional.
The test system of series [5] is Clostridioides difficile. The series is described as follows: Antibacterial activity against Clostridium difficile CD196 assessed as growth inhibition after 20 to 24 hrs. In kind it is functional.
The test system of series [6] is Clostridioides difficile. The series is described as follows: Antibacterial activity against Clostridium difficile 10463 clinical isolate assessed as growth inhibition after 20 to 24 hrs. Format: functional.
Series [7] concerns Clostridioides difficile. The series is described as follows: Antibacterial activity against Clostridium difficile UK1 clinical isolate assessed as growth inhibition after 20 to 24 hrs. In kind it is functional.
Series [8] relates to Clostridioides difficile. The series is described as follows: Antibacterial activity against Clostridium difficile GC1 clinical isolate assessed as growth inhibition after 20 to 24 hrs. Format: functional.
For series [9], the system named is Clostridioides difficile. The series is described as follows: Antibacterial activity against Clostridium difficile UK6 clinical isolate assessed as growth inhibition after 20 to 24 hrs. In kind it is functional.
Series [10] can be described thus: Antibacterial activity against Clostridium difficile 630 clinical isolate assessed as growth inhibition after 20 to 24 hrs. Format: functional, Clostridioides difficile 630. The following applies: Clostridioides difficile.
In series [11] the test system is Clostridioides difficile. The series is described as follows: Ratio of MBC99.9 to MIC for Clostridium difficile CD196. In kind it is functional.
Series [12] deals with Clostridioides difficile. The series is described as follows: Bactericidal activity against Clostridium difficile CD196 after 20 to 24 hrs. Conditions: read-out: MBC99.9. Format: functional.
Series [13] relates to Clostridioides difficile. The series is described as follows: Antibacterial activity against Clostridium difficile VPI clinical isolate assessed as growth inhibition after 20 to 24 hrs. Format: functional.
Series [14] deals with Clostridioides difficile. The series is described as follows: Antibacterial activity against Clostridium difficile clinical isolate assessed as growth inhibition. In kind it is functional.
In series [15] the test system is Clostridioides difficile. The series is described as follows: Antibacterial activity against stationary phase of Clostridium difficile CD196 assessed as cell killing after 3 to 6 hrs. In kind it is functional.

≈ marks a conversion by molar mass, not a printed value. Calls of active or inactive are those of the source.

For orientation: MIC means the smallest concentration in the dilution series that meets the test's criterion for growth inhibition. Turning to `Cc1ncc([N+](=O)[O-])n1CCO` [METRONIDAZOLE], in the series with FaDu, the Activity was more than 200 µg/mL. Further, the outcome in the series on Clostridioides difficile [1] was inactive. Further, the MIC is not above 0.78 µg/mL in series [2]; more than 50 µg/mL in the series with Streptococcus mutans; more than 50 µg/mL in series [3]; more than 50 µg/mL in the series on Staphylococcus aureus; not above 0.78 µg/mL with Bifidobacterium longum; 3.13 µg/mL (≈ 18.3 µM) in the series on Clostridium perfringens. Moreover, the MIC was more than 50 µg/mL in the series on Lacticaseibacillus casei; more than 50 µg/mL in the series on Escherichia coli; not above 0.78 µg/mL in the series on Bacteroides fragilis; more than 50 µg/mL in the series on Enterococcus faecalis; 1.56 µg/mL (≈ 9.11 µM) in the series on Clostridioides difficile [5]. Also, in series [4], the MCC at 24 h is more than 200 µg/mL.

As for `O=C(N/N=C/c1c(O)ccc2ccccc12)c1ccc(-c2ccccc2)cc1`, the MIC in [2] is more than 50 µg/mL; in the series on Streptococcus mutans, more than 50 µg/mL; in [3], more than 50 µg/mL; in the series with Staphylococcus aureus, more than 50 µg/mL; in the series with Bifidobacterium longum, more than 50 µg/mL; in the series on Clostridioides difficile [6], 3 µg/mL (≈ 8.19 µM). The MIC in the series on Clostridium perfringens was 3.13 µg/mL (≈ 8.54 µM); in the series with Lacticaseibacillus casei, more than 50 µg/mL; in the series on Clostridioides difficile [7], 1.5 µg/mL (≈ 4.09 µM); in the series with Clostridioides difficile [8] it was 1.5 µg/mL (≈ 4.09 µM); with Clostridioides difficile [9], 1.5 µg/mL (≈ 4.09 µM); in series [10], 1.5 µg/mL (≈ 4.09 µM). In addition, the MIC with Escherichia coli was more than 50 µg/mL; with Bacteroides fragilis it was more than 50 µg/mL; with Clostridioides difficile [13], 3 µg/mL (≈ 8.19 µM); with Enterococcus faecalis it was more than 50 µg/mL; with Clostridioides difficile [5], 1.56 µg/mL (≈ 4.26 µM). For the same molecule, in the series on Clostridioides difficile [11], the Ratio is 2. Besides, the MBC in the series with Clostridioides difficile [12] is 3.13 µg/mL (≈ 8.54 µM).

Take `Cc1ccc(C(=O)N/N=C/c2c(O)ccc3ccccc23)cc1`: the Activity in the series on FaDu is more than 100 µg/mL. Further, the outcome with Clostridioides difficile [1] was Active. Further, the MIC is 25 µg/mL (≈ 82.1 µM) in series [2]; more than 50 µg/mL in the series on Streptococcus mutans; more than 50 µg/mL in series [3]; more than 50 µg/mL in the series on Staphylococcus aureus; more than 50 µg/mL in the series on Bifidobacterium longum; 1.56 µg/mL (≈ 5.13 µM) in the series on Clostridium perfringens. For the same molecule, the MIC in the series on Lacticaseibacillus casei was more than 50 µg/mL; with Escherichia coli it was more than 50 µg/mL; in the series with Bacteroides fragilis, 12.5 µg/mL (≈ 41.1 µM); in the series with Enterococcus faecalis it was more than 50 µg/mL; in the series on Clostridioides difficile [5], 6.25 µg/mL (≈ 20.5 µM). In addition, the MBC in the series with Clostridioides difficile [12] amounted to 6.25 µg/mL (≈ 20.5 µM). Also, the MCC at 24 h in series [4] is more than 100 µg/mL.

As usually defined, the MIC90 is an inhibitory concentration at the 90% level, which refers to growth in some studies and to a panel of isolates in others. In the case of `CCc1c(Cl)c(O)c(Cl)c(O)c1C(=O)O[C@H]1[C@H](O)[C@H](OC)[C@H](OC/C2=C\C=C\C[C@H](O)/C(C)=C/[C@H](CC)[C@@H](O[C@@H]3OC(C)(C)[C@@H](OC(=O)C(C)C)[C@H](O)[C@@H]3O)/C(C)=C/C(C)=C/C[C@@H]([C@@H](C)O)OC2=O)O[C@@H]1C` [FIDAXOMICIN], the outcome with Clostridioides difficile [1] was inactive. The MIC90 in the series on Clostridioides difficile [14] turned out to be 0.008 µg/mL (≈ 0.00756 µM). Also, the MIC is more than 50 µg/mL in [2]; 3.13 µg/mL (≈ 2.96 µM) with Streptococcus mutans; more than 50 µg/mL in series [3]; 3.13 µg/mL (≈ 2.96 µM) in the series with Staphylococcus aureus; not above 0.78 µg/mL in the series on Bifidobacterium longum; not above 0.0075 µg/mL in the series on Clostridium perfringens. Besides, the MIC in the series with Lacticaseibacillus casei was more than 50 µg/mL; in the series on Escherichia coli, more than 50 µg/mL; with Bacteroides fragilis, more than 50 µg/mL; in the series with Enterococcus faecalis it was 12.5 µg/mL (≈ 11.8 µM); with Clostridioides difficile [5], 0.18 µg/mL (≈ 0.17 µM).

`Cc1cc(C(=O)N/N=C/c2c(O)ccc3ccccc23)[nH]n1`: the Activity in the series on FaDu was more than 100 µg/mL; with Clostridioides difficile [15] it was “Dose-dependent effect”. The MIC was 25 µg/mL (≈ 84.9 µM) in series [2]; more than 50 µg/mL in the series with Streptococcus mutans; more than 50 µg/mL in series [3]; more than 50 µg/mL in the series with Staphylococcus aureus; more than 50 µg/mL in the series on Bifidobacterium longum; not above 3.13 µg/mL in the series on Clostridium perfringens. In addition, the MIC in the series on Lacticaseibacillus casei is more than 50 µg/mL; in the series with Escherichia coli, more than 50 µg/mL; with Bacteroides fragilis, more than 50 µg/mL; in the series with Enterococcus faecalis, more than 50 µg/mL; in the series with Clostridioides difficile [5] it was 3.13 µg/mL (≈ 10.6 µM). Moreover, in the series with Clostridioides difficile [12], the MBC worked out at 3.13 µg/mL (≈ 10.6 µM). For the same molecule, the MCC at 24 h in series [4] is more than 100 µg/mL.

As to `N#CC(C#N)=NNc1cccc(Cl)c1` [CARBONYL CYANIDE M-CHLOROPHENYLHYDRAZONE], the Activity with FaDu stood at 50 µg/mL. For the same molecule, in the series with Clostridioides difficile [1], the outcome was Active. The MIC is more than 50 µg/mL in series [2]; more than 50 µg/mL with Streptococcus mutans; more than 50 µg/mL in series [3]; more than 50 µg/mL in the series with Staphylococcus aureus; 3.25 µg/mL (≈ 15.9 µM) in the series with Bifidobacterium longum; more than 50 µg/mL in the series on Clostridium perfringens. For the same molecule, the MIC in the series with Lacticaseibacillus casei is more than 50 µg/mL; in the series on Escherichia coli it was more than 50 µg/mL; in the series on Bacteroides fragilis, more than 50 µg/mL; with Enterococcus faecalis, more than 50 µg/mL; in the series with Clostridioides difficile [5], 1.56 µg/mL (≈ 7.62 µM). The MCC at 24 h in series [4] stood at 50 µg/mL.

`CN[C@H](CC(C)C)C(=O)N[C@H]1C(=O)N[C@@H](CC(N)=O)C(=O)N[C@H]2C(=O)N[C@H]3C(=O)N[C@H](C(=O)N[C@H](C(=O)O)c4cc(O)cc(O)c4-c4cc3ccc4O)[C@H](O)c3ccc(c(Cl)c3)Oc3cc2cc(c3O[C@@H]2O[C@H](CO)[C@@H](O)[C@H](O)[C@H]2O[C@H]2C[C@](C)(N)[C@H](O)[C@H](C)O2)Oc2ccc(cc2Cl)[C@H]1O` [VANCOMYCIN]: in the series with FaDu, the Activity was more than 200 µg/mL. Besides, the outcome with Clostridioides difficile [1] was inactive. The MIC in [2] was 12.5 µg/mL (≈ 8.63 µM); with Streptococcus mutans, 1.56 µg/mL (≈ 1.08 µM); in series [3], more than 50 µg/mL; in the series with Staphylococcus aureus, 3.13 µg/mL (≈ 2.16 µM); with Bifidobacterium longum it was not above 0.78 µg/mL; in the series with Clostridioides difficile [6], 1.5 µg/mL (≈ 1.04 µM). The MIC in the series with Clostridium perfringens is not above 0.78 µg/mL; in the series on Lacticaseibacillus casei it was more than 50 µg/mL; in the series on Clostridioides difficile [7] it was 1.5 µg/mL (≈ 1.04 µM); in the series on Clostridioides difficile [8] it was 1.5 µg/mL (≈ 1.04 µM); with Clostridioides difficile [9], 0.75 µg/mL (≈ 0.518 µM); in series [10] it was 0.75 µg/mL (≈ 0.518 µM). The MIC is more than 50 µg/mL in the series on Escherichia coli; 12.5 µg/mL (≈ 8.63 µM) with Bacteroides fragilis; 1.5 µg/mL (≈ 1.04 µM) with Clostridioides difficile [13]; 3.13 µg/mL (≈ 2.16 µM) with Enterococcus faecalis; 1 µg/mL (≈ 0.69 µM) in the series on Clostridioides difficile [5]. Besides, in series [4], the MCC at 24 h is more than 200 µg/mL.
